This is an account of results in ChEMBL document CHEMBL3585263, “Novel Octahydropyrrolo[3,4-c]pyrroles Are Selective Orexin-2 Antagonists: SAR Leading to a Clinical Candidate” (J Med Chem, 2015).

Series [1] concerns the target T1, Orexin receptor type 2 (Homo sapiens, UniProt O43614).
T1 sequence (O43614 whole entry): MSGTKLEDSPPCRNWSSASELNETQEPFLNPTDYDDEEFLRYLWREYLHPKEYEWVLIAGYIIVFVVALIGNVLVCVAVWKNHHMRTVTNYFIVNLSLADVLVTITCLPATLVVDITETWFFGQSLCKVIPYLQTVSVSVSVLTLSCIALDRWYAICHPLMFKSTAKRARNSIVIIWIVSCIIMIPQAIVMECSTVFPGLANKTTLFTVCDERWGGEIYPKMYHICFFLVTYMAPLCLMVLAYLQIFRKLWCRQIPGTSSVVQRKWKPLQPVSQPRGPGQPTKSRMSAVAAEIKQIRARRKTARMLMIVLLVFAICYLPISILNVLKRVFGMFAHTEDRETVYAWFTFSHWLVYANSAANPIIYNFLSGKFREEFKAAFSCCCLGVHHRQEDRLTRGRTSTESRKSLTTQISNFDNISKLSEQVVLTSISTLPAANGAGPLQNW
Nature of the series: Binding affinity to human OX2 receptor.

Series [2] addresses T2, Orexin/Hypocretin receptor type 1 (Homo sapiens, UniProt O43613).
T2 sequence (O43613 whole entry): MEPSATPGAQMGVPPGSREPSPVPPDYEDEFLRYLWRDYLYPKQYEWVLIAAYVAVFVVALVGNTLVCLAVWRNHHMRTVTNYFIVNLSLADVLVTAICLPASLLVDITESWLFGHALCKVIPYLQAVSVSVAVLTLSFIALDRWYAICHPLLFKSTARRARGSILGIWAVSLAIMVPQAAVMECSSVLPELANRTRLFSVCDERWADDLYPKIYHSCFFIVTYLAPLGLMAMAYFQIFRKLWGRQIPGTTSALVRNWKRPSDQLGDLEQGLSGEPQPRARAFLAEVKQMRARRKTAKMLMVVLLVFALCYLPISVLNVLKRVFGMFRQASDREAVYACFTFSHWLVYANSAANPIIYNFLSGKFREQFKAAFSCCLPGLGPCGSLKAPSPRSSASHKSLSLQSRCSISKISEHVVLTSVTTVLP
Nature of the series: Binding affinity to human OX1 receptor.

Series [3] deals with T3, Orexin receptor type 2 (Rattus norvegicus, UniProt P56719).
T3 sequence (P56719 whole entry): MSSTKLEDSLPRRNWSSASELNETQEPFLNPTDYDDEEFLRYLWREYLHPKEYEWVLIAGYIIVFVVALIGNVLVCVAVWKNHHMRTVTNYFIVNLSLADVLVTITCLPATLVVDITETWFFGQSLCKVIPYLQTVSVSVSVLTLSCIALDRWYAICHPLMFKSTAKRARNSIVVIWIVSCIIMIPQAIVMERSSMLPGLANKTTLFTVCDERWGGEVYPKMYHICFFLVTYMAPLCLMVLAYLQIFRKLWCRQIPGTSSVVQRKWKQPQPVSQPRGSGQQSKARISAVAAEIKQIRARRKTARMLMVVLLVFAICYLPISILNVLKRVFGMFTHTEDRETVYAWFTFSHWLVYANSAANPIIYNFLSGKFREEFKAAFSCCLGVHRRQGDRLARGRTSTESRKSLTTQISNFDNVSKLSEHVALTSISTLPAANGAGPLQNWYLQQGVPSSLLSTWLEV
Nature of the series: Binding affinity to rat OX2 receptor.

Series [4] relates to Rattus norvegicus. As to the kind of experiment: Ex vivo OX2 receptor occupancy in Sprague-Dawley rat brain at 10 mg/kg, po after 30 mins by autoradiographic analysis. The format is functional.
The target in series [5] is Voltage-gated inwardly rectifying potassium channel KCNH2 (Homo sapiens, UniProt Q12809). Nature of the series: Inhibition of [3H]-astemizole binding to human ERG expressed in HEK293 cells.
The test system of series [6] is Rattus norvegicus. As to the kind of experiment: Ex vivo OX2 receptor occupancy in Sprague-Dawley rat brain at 30 mg/kg, po after 30 mins by autoradiographic analysis. The series is classed as functional.
The nature of series [7]: Clearance in Sprague-Dawley rat at 10 mg/kg, po and 1 mg/kg, iv. The format is ADME, organism-based. The conditions noted are these: in vivo.
Series [8] in a line: Volume of distribution at steady state in Sprague-Dawley rat at 10 mg/kg, po and 1 mg/kg, iv. The series is classed as ADME, organism-based. Conditions: in vivo, read-out: Vdss.
Series [9] in a line: Half life in Sprague-Dawley rat at 1 mg/kg, iv. The format is ADME, organism-based. Conditions: in vivo.
The nature of series [10]: Oral bioavailability in Sprague-Dawley rat at 10 mg/kg. The format is ADME, organism-based. Conditions: in vivo.
Series [11] can be described thus: Cmax in Sprague-Dawley rat at 10 mg/kg, po. The series is classed as ADME, organism-based. Further details: dose 10 mg/kg, route oral. The conditions noted are these: in vivo.
The nature of series [12]: Apparent permeability from basolateral to apical side in human Caco2/TC7 cells at 10 uM. The conditions noted are these: Caco-2.
Series [13] in a line: Apparent permeability from apical to basolateral side in human Caco2/TC7 cells at 10 uM. The conditions noted are these: Caco-2. On the technique in general: Caco-2 monolayers are a common model of the intestinal barrier.
Series [14] can be described thus: Plasma protein binding in human at 1 uM after 6 hrs by equilibrium dialysis method. The conditions noted are these: read-out: PPB (converted). The format is ADME, cell-free. (In equilibrium dialysis only unbound substance equilibrates across the membrane.)
Series [15] in a line: Plasma protein binding in rat at 1 uM after 6 hrs by equilibrium dialysis method. The series is classed as ADME, cell-free. The conditions noted are these: read-out: PPB (converted).
A further series has as its target T4, Cytochrome P450 1A2 (Homo sapiens, UniProt P05177).
T4 sequence (P05177 whole entry): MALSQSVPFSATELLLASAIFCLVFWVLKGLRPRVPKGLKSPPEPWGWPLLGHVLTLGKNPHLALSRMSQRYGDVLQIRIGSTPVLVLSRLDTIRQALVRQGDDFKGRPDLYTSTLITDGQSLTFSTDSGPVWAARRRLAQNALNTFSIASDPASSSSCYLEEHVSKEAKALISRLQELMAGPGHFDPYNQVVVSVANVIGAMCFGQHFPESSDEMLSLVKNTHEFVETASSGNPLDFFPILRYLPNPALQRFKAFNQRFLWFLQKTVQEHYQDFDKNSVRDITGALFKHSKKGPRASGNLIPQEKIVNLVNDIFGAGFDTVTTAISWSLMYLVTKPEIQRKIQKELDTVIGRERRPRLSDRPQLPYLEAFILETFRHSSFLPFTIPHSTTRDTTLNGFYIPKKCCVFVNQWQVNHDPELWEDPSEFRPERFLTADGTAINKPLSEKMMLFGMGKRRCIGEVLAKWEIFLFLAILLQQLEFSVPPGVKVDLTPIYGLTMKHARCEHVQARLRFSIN
Nature of the series: Inhibition of CYP1A2 in human liver microsomes using phenacetin as substrate by LC-MS/MS analysis. On the technique in general: Microsomes from liver hold many membrane-bound enzymes, among them those of drug oxidation.

Series [16] is described as follows: Metabolic stability in rat liver microsomes assessed as extraction ratio at 1 uM measured over 1 hr by LC-MS/MS analysis.
The nature of series [17]: Metabolic stability in human liver microsomes assessed as extraction ratio at 1 uM measured over 1 hr by LC-MS/MS analysis.
The subject of series [18] is Rattus norvegicus. As to the kind of experiment: Ex vivo OX2 receptor occupancy in Sprague-Dawley rat brain at 30 mg/kg, po after 15 mins by autoradiographic analysis. The format is functional.
Series [19] is described as follows: Protein binding in rat brain at 5 uM after 5 hrs by equilibrium dialysis method. The format is ADME, tissue-based. Conditions: read-out: PB (converted).

For orientation: Ki means the dissociation constant of the complex between target and ligand, obtained from inhibition or displacement. By IC50 is commonly meant the concentration needed to halve the response being measured. The term half-life denotes the time in which the quantity being followed falls by half. One may read the bioavailability as dose-corrected exposure relative to a reference, in per cent. The low end stands for poor availability, the high end for good availability. The Cmax is the maximum level reached in the sampled fluid or tissue. The term Papp B→A denotes the apparent permeability from the basolateral to the apical side of a cell layer. A word on the Papp A→B: it is how fast a substance crosses the layer from the apical side.

Chain of Voltage-gated inwardly rectifying potassium channel KCNH2 (Q12809 whole entry): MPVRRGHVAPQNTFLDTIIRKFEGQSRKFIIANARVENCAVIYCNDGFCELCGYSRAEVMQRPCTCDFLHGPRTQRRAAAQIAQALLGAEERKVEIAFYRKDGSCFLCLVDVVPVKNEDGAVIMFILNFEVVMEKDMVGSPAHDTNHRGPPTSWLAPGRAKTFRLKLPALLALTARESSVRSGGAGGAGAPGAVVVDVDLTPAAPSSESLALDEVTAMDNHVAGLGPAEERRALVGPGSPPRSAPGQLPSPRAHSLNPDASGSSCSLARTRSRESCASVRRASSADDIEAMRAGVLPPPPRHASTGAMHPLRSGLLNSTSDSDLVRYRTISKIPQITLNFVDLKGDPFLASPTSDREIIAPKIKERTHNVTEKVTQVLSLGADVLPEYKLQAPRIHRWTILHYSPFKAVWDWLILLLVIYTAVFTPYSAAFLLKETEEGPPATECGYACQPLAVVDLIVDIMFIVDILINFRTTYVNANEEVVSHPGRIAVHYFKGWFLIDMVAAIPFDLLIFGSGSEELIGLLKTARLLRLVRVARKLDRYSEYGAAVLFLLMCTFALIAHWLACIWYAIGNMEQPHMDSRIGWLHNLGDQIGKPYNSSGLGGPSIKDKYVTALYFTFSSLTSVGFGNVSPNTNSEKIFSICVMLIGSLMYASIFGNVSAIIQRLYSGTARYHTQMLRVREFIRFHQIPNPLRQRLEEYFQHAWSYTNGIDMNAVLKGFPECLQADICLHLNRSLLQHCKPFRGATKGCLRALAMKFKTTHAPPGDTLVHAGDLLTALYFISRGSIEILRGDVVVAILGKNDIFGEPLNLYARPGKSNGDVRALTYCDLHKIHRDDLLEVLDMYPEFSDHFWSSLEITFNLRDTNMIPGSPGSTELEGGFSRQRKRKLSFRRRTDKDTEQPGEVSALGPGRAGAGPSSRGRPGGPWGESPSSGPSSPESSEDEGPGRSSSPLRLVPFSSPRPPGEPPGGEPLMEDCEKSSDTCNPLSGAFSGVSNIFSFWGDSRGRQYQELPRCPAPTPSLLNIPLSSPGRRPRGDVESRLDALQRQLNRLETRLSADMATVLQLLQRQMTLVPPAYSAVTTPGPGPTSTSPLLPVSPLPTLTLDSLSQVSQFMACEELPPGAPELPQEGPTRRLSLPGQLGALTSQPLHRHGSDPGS

Consider `Cc1cc(C)nc(N2C[C@H]3CN(C(=O)c4ccccc4-c4cccs4)C[C@H]3C2)n1`, for which the Ki on Orexin receptor type 2 [1] worked out at 9.8 nM; in series [2] it was 471 nM; at Orexin receptor type 2 [3] it was 7 nM. Moreover, in the series with Rattus norvegicus [4], the Occ is 26%.
`Cc1cc(C)nc(N2C[C@H]3CN(C(=O)c4ccccc4-n4nccn4)C[C@H]3C2)n1`: the IC50 in series [5] was more than 10000 nM. Also, the Ki on Orexin receptor type 2 [3] was 2 nM. Besides, the Occ with Rattus norvegicus [6] worked out at 67%. The clearance in series [7] came to 52.1 mL/min/kg. The Vd in series [8] came to 0.7 L/kg. The same compound had a half-life in [9] of 16.2 min. For the same compound, the bioavailability in [10] was 8%. Besides, in series [11], the highest level (Cmax) was 148 ng/mL.
Take `Cc1cc(C)nc(N2C[C@H]3CN(C(=O)c4ccc(F)cc4-n4nccn4)C[C@H]3C2)n1`: the IC50 in series [5] was more than 10000 nM; on Cytochrome P450 1A2 it was 9300 nM. The Ki at Orexin receptor type 2 [3] amounted to 14 nM. This compound also had an Occ in the series with Rattus norvegicus [6] of 72%. In series [7], the clearance worked out at 65.5 mL/min/kg. Besides, the Vd in series [8] came to 1.5 L/kg. In [9], this compound showed a half-life of 22.2 min. Also, in [10], the bioavailability is 18%. Further, the apparent permeability from basolateral to apical (Papp B→A) at 10 µM in series [12] came to 26.8 ×10⁻⁶ cm/s. Besides, the Papp A→B at 10 µM in series [13] is 58.1 ×10⁻⁶ cm/s. In addition, the fraction unbound at 6 h, 1 µM was 0.075 in series [14] and 0.116 in [15].
With `Cc1cc(C)nc(N2C[C@H]3CN(C(=O)c4ccccc4-c4ncn[nH]4)C[C@H]3C2)n1`, the Ki at Orexin receptor type 2 [1] was 30 nM; in series [2], 3650 nM; on Orexin receptor type 2 [3] it was 39 nM. For the same compound, the hepatic extraction ratio at 1 h, 1 µM in [16] was 0.51; in series [17] it was 0.73. The same compound yielded an IC50 in series [5] of more than 10000 nM. Also, the Occ in the series with Rattus norvegicus [18] was 0%. In [7], this compound yielded a clearance of 150 mL/min/kg. Moreover, the Vd in series [8] came out at 3.9 L/kg. The compound further had a half-life in series [9] of 22.8 min. In addition, in [10], the bioavailability came out at 22%.
Turning to `Cc1cc(C)nc(N2C[C@H]3CN(C(=O)c4cccc(F)c4-n4nccn4)C[C@H]3C2)n1`, the IC50 in [5] was 6000 nM; against Cytochrome P450 1A2, 3100 nM. This compound came in with an Occ in the series on Rattus norvegicus [18] of 49%. Also, the clearance in [7] came to 57 mL/min/kg. The Vd in [8] worked out at 0.7 L/kg. Moreover, in [9], the half-life is 12 min. Moreover, in series [10], the bioavailability amounted to 21%. The Papp B→A at 10 µM in [12] is 49.7 ×10⁻⁶ cm/s. In series [13], the Papp A→B at 10 µM was 62.3 ×10⁻⁶ cm/s. Besides, the figures for the fraction unbound at 6 h, 1 µM in series [14] and in series [15] were 0.095 and 0.273, respectively. Besides, the fraction unbound at 5 h, 5 µM in [19] was 0.156.
